According to patent publication US8435588B2, “High-potency sweetener composition with an anti-inflammatory agent and compositions sweetened therewith” (The Coca-Cola Company, priority 2005, dated 2013):

What was measured:
[1] = Rate of dissolution of rebaudioside A polymorph and amorphous forms in H2O; format: physicochemical
[2] = format: physicochemical
Procedure: A solution of rebaudioside A (>97% pure by HPLC ) was prepared in double distilled water (12.5 gm in 50 mL, 25% concentration) by stirring the mixture at 40° C. for 5 minutes. An amorphous form of rebaudioside A was formed by immediately using the clear solution for spray drying with the Lab-Plant spray drier SD-04 instrument (Lab-Plant Ltd., West Yorkshire, U.K.). The solution was fed through the feed pump into the nozzle atomizer which atomized it into a spray of droplets with the help of a constant flow of nitrogen/air.

[3] = Sensory evaluation of sweetness linger by expert panel; format: in vivo; design: key: 0: no sweetness linger; 1: very slight sweetness linger; 2: slight sweetness linger; 3: moderate sweetness linger; 4: moderately high sweetness linger; 5: high sweetness linger; settings: for sweetness linger: scale 0-5; for Sweetness Linger rating (defined for controls of the protocol): sucrose, 500 ppm control sample, values defined as scale anchors
Procedure: Sensory evaluation of the samples prepared in Example Set G was carried out under the following protocol, similar to that described hereinabove. In this test protocol, none of the samples were swallowed. All samples were expectorated and the mouth was rinsed with water after the tasting. Immediately upon sensing maximal sweetness, the sample was expectorated, the mouth was rinsed with water and the rate of sweetness decay (“Sweetness Linger”) was measured, where attention was focused on the sweetness 3-4 min after the water rinse. After sample tasting was complete, a salty oyster cracker was chewed followed by a water rinse, and at least 5 minutes followed before tasting the next sample. The sweetness linger was rated by a panel of experts in the sensory evaluation of foods and beverages using the following scale: 0=no sweetness linger, 1=very slight sweetness linger, 2=slight sweetness linger, 3=moderate sweetness linger, 4=moderately high sweetness linger, 5=high sweetness linger.
The “Sweetness Linger” rating for sucrose observed by this protocol is defined as 0. The Sweetness Linger of a 500 ppm of EBA control sample is defined as 5. Experimental samples were tasted by the same protocol, always allowing sufficient time between samples to ensure re-equilibration of the sensory system. Re-tasting of control samples during the course of the experiment was allowed and encouraged.
The comparison taste test was performed between two controls and addition of sweet taste improving additive on the onset and/or sweetness linger.
Sweet taste improving compositions were combined with a EBA solution to determine their effect on sweetness linger. Screening of the initial sample, or further dilutions, allowed identification of concentrations which were just above-threshold, herein defined as “near-threshold concentrations.” The near-threshold additive concentrations, a 6- to 100-fold higher additive concentration (depending on the off-taste intensity), and a mid-level additive concentration (halfway between the near-threshold and higher additive concentration) were evaluated to determine the effect on sweetness linger of a REBA solution.
Formulations of a 500 ppm EBA in a phosphoric acid solution (75%) at a pH of 2.5 with phosphoric acid or a pH of 3.1 with citric acid and potassium citrate were prepared prior to the addition of the additives at the three levels of concentration.
Sensory evaluation using the protocol described in Example Set G then was used to evaluate the sweetness linger of the REBA solutions.

Structure (SMILES)	Rate of dissolution in H2O at 25° C. [1]	Sweetness Linger rating (defined for controls of the protocol) [3]	further results
C=C1C[C@@]23CC[C@H]4[C@@](C)(CCC[C@@]4(C)C(=O)O[C@@H]4O[C@H](CO)[C@@H](O)[C@H](O)[C@H]4O)[C@@H]2CC[C@]1(O[C@@H]1O[C@H](CO)[C@@H](O)[C@H](O[C@@H]2O[C@H](CO)[C@@H](O)[C@H](O)[C@H]2O)[C@H]1O[C@@H]1O[C@H](CO)[C@@H](O)[C@H](O)[C@H]1O)C3 [Form 1, rebaudioside A]	Very low (<0.2%/ %/60 minutes		
C=C1C[C@@]23CC[C@H]4[C@@](C)(CCC[C@@]4(C)C(=O)O[C@@H]4O[C@H](CO)[C@@H](O)[C@H](O)[C@H]4O)[C@@H]2CC[C@]1(O[C@@H]1O[C@H](CO)[C@@H](O)[C@H](O[C@@H]2O[C@H](CO)[C@@H](O)[C@H](O)[C@H]2O)[C@H]1O[C@@H]1O[C@H](CO)[C@@H](O)[C@H](O)[C@H]1O)C3 [Form 2, rebaudioside A]	Intermediate (<30%/ %/5 minutes		
C=C1C[C@@]23CC[C@H]4[C@@](C)(CCC[C@@]4(C)C(=O)O[C@@H]4O[C@H](CO)[C@@H](O)[C@H](O)[C@H]4O)[C@@H]2CC[C@]1(O[C@@H]1O[C@H](CO)[C@@H](O)[C@H](O[C@@H]2O[C@H](CO)[C@@H](O)[C@H](O)[C@H]2O)[C@H]1O[C@@H]1O[C@H](CO)[C@@H](O)[C@H](O)[C@H]1O)C3 [Form 3, rebaudioside A]	High (>30%/5 %/5 minutes		
C=C1C[C@@]23CC[C@H]4[C@@](C)(CCC[C@@]4(C)C(=O)O[C@@H]4O[C@H](CO)[C@@H](O)[C@H](O)[C@H]4O)[C@@H]2CC[C@]1(O[C@@H]1O[C@H](CO)[C@@H](O)[C@H](O[C@@H]2O[C@H](CO)[C@@H](O)[C@H](O)[C@H]2O)[C@H]1O[C@@H]1O[C@H](CO)[C@@H](O)[C@H](O)[C@H]1O)C3 [Form 4, rebaudioside A]	High (>35.0%/ %/5 minutes		solubility in water at room temperature [2]: > 35.0%
C=C1C[C@@]23CC[C@H]4[C@@](C)(CCC[C@@]4(C)C(=O)O[C@@H]4O[C@H](CO)[C@@H](O)[C@H](O)[C@H]4O)[C@@H]2CC[C@]1(O[C@@H]1O[C@H](CO)[C@@H](O)[C@H](O[C@@H]2O[C@H](CO)[C@@H](O)[C@H](O)[C@H]2O)[C@H]1O[C@@H]1O[C@H](CO)[C@@H](O)[C@H](O)[C@H]1O)C3 [REBA, rebaudioside A]		5	sweetness linger ([3]; Example Set G: 400 ppm REBA in citric acid/potassium citrate composition equivalent to diet lemon-lime beverage, sugar control 8 g in 100 ml citrate buffer): 5; sweetness linger ([3]; Example Set H: 500 ppm REBA (H41: 360 ppm) in carbon-treated water, phosphoric acid (75%) to pH 2.4-2.5, sugar control 10 g in 100 ml): 5
OC[C@H]1O[C@@](CO)(O[C@H]2O[C@H](CO)[C@@H](O)[C@H](O)[C@H]2O)[C@@H](O)[C@@H]1O [sugar, sucrose, reference compound]		0	
